Measurements: US20200230205A1, “COMPOSITIONS AND METHODS FOR TREATING MYELIN DISORDERS” (CASE WESTERN RESERVE UNIVERSITY, priority 2017, published 2020)

Test system: aggrecan (CS56)
Assay: CSPG degradation by OPC conditioned media (CS56 spot quantification and western blot of aggrecan)
Assay type: cell-based, mouse
Protocol: CSPG gradients were prepared as described previously (Tom, V. J., et al. Studies on the Development and Behavior of the Dystrophic Growth Cone, the Hallmark of Regeneration Failure, in an In vitro Model of the Glial Scar and after Spinal Cord Injury.). 24-well glass coverslip were coated with poly-L-lysine and nitrocellulose, and a mixture of 700 μg/mL aggrecan (A1960 Sigma) and 10 μg/mL laminin (11243217001 Sigma) spotted on the coated coverslip. After drying, coated coverslips were then incubated with laminin at 37° C. for 3h. Purified OPCs were plated at a density of 10,000/coverslip and cultured in DMEM/F12 medium containing with N2, PDGF (20 ng/ml), FGF (20 ng/ml), NT-3 (5 ng/ml), CNTF (O1 ng/ml), Glutamine (200 mM). Coverslips were stained with CS-56 (C8035, Sigma, 1:500) and O4 antibodies (Hybridoma Core Cleveland Clinic, 1:10). O4-positive cells crossing the aggrecan border were counted for each spot. For CSPG gradient quantification, 1×10^6 OPCs were plated per well on PLL, 1 μg/mL laminin, and 2 μg/mL aggrecan coated 6-well plates. OPCs treated with vehicle, 2.5 μM ISP, or 2.5 μM SISP for 2 days at 37° C. CM was harvested and incubated with freshly made spots. Spots were incubated with CM for 2 days at 37° C. then stained with CS-56 and laminin (L9393, Sigma, 1:1000) antibodies and consistently imaged. Using ImageJ software (NIH), pixel intensities of the CS-56 or laminin spot rims were quantified using the same ROI. For cultured spinal cord explant, the spinal cords of cervical and thoracic of P1 mouse pups were chopped into 1-2 mm tissue pieces and transferred to the coverslip. Explants were cultured in DMEM/F12 medium with 15% FBS (Hyclone), O1 ng/ml PDGF (Sigma) and N2 supplement (Invitrogen). For ISP treatment, 2.5 uM ISP was added to the media at the time of plating. 25 μM GM6001 (2983, Tocris), 100 nM MMP-2 inhibitor (444244, Calbiochem), and/or 2.5 μM ISP or SISP was used.
CM was harvested from 1×10^6 OPCs incubated on PLL, 1 μg/mL laminin, and 2 μg/mL aggrecan coated 6-well plates. OPCs were treated with vehicle, 2.5 μM ISP, or 2.5 μM SISP in conjunction with 10 μg/mL Exo1 (ab120292, Abcam), or 25 μM GM6001 (364205, Calbiochem) for 2 days at 37° C. […] CM of each cell-strained group was incubated with 20 μg/mL aggrecan and/or 10 μg/mL laminin for 2 hours in lmL Eppendorf tubes at 37° C. As a positive control, OPC media was incubated with aggrecan and incubated in the same fashion. Western blots were then performed as described below with incubation against CS-56 and/or laminin antibodies.

Q: For `CCCCCCCC/C=C\CCCCCCCC(=O)NO` [OA-Hy, reference compound], which CS56 spot degradation (25 μM GM6001 or 100 nM OA-Hy with 2.5 μM ISP) is on record?
A: additionally rescued CS56 spot degradation

Q: What about the “aggrecan GAG digestion (CS56 immunoblot)” value (Exo1 10 μg/mL, GM6001 25 μM or OA-Hy 100 nM with 2.5 μM ISP) of the same molecule?
A: partially rescued

Q: With “GRKKRRQRRRCDMAEHMERLKANDSLKLSQEYESI [ISP]” as the molecule, how does the “CS56 immunoblot of aggrecan incubated with OPC CM” value (2.5 μM ISP, aggrecan 20 μg/mL) read?
A: significant CS56 degradation

Q: What about the “CS56 expression of aggrecan/laminin spots” value (CM of OPCs treated with 2.5 μM ISP, vs vehicle, SISP and no cell control) of the same molecule?
A: significantly reduced CS56 expression

Q: And the “CS56 band, western blot” value (ISP at 2.5 and 5 μM doses vs control)?
A: significant ISP-treated CS56 degradation

Q: And the “aggrecan digestion, dependence on ISP dose (western blot)” value (varying doses of ISP, aggrecan 20 μg/mL, 2 hours)?
A: dose-dependent manner
